In ChEMBL document CHEMBL5727880, “Amide compounds as kinase inhibitors, compositions and methods of treatment” (2020):

Target: Rho-associated protein kinase 2 (Homo sapiens, UniProt O75116)
Test: Kinase Inhibition Assay: The following assay protocol is for measuring the phosphorylation of a peptide substrate (FAM-[…]-OH wherein FAM is carboxyfluorescein). The peptide is >98% purity by Capillary Electrophoresis. The peptide is phosphorylated by the protein kinase ROCK1 or ROCK2. The ROCK1 or ROCK2 enzyme, substrate, and cofactors (ATP and Mg2+) are combined in a well of a microtiter plate and incubated for 3 hours at 25° C. in the presence or absence of an inhibitor compound. At the end of the incubation, the reaction is quenched by the addition of an EDTA-containing buffer. The substrate and product are separated and quantified electrophoretically using the microfluidic-based LABCHIP® 3000 Drug Discovery System from Caliper Life Sciences (Hopkinton, Mass.).The components of the assay mixture are:100 mM HEPES, pH 7.50.1% BSA0.01% Triton X-1001 mM DTT10 mM MgCl210 μM Sodium Orthovanadate10 LM Beta-Glycerophosphate5 μM ATP (for ROCK1) or 7 μM ATP (for ROCK2)1% DMSO (from compound)1.25 μM FAM-[…]-OH3 nM ROCK1 or 2.5 nM ROCK2 enzymeSubstrate and product peptides present in each sample are separated electrophoretically using the LABCHIP® 3000 capillary electrophoresis instrument. As substrate and product peptides are separated two peaks of fluorescence are observed. […]

Sequence of Rho-associated protein kinase 2 (O75116 whole entry): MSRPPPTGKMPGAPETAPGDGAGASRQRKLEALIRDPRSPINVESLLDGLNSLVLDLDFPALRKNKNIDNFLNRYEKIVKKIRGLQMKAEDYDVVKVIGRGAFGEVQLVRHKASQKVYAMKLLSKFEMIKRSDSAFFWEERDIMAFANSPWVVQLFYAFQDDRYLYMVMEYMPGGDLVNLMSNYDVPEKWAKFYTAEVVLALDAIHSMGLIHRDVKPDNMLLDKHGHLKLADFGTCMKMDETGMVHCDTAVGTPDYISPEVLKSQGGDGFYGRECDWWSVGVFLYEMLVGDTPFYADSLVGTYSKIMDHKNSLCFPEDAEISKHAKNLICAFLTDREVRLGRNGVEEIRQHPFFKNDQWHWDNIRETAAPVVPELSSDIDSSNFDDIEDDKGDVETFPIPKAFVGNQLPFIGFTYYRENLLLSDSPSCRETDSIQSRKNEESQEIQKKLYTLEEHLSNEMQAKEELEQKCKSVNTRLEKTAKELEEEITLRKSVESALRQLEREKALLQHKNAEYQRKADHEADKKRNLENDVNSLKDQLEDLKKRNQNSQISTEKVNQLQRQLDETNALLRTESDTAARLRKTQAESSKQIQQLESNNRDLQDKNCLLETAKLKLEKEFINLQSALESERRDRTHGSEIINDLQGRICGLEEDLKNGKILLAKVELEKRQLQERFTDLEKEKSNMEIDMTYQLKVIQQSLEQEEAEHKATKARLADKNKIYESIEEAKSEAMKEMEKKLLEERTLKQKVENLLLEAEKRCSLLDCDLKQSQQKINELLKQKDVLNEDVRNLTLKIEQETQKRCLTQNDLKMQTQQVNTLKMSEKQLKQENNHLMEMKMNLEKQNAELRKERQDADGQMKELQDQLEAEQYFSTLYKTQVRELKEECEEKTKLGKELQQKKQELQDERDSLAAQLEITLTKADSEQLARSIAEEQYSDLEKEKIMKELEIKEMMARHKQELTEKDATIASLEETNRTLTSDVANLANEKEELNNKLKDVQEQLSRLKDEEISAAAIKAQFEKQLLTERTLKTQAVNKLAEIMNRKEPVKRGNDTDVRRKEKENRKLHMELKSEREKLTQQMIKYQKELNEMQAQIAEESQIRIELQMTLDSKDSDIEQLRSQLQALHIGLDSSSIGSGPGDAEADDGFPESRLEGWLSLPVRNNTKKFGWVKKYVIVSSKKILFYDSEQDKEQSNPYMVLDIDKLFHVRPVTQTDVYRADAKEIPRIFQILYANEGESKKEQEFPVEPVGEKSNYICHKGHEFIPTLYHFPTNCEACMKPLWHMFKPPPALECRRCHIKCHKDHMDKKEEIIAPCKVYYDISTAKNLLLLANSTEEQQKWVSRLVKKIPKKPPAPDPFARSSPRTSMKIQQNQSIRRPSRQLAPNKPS

C[C@@H](NC(=O)c1ccc(-c2ccncc2)cc1)c1cccc(C(=O)NC2CCCC2)c1
IC50: 1.2 nM
